{
  "source": "patent US20150352072A1",
  "about": "“ZINC N-ACETYL TAURINATE FOR THE TREATMENT OF PROSTATE CANCER” (TRI-INOV, priority 2011, published 2015)",
  "assay_type_in_all_cases": "cell-based",
  "key": {"Bax/Bcl-2 ratio": {"test_system": "Bax/Bcl-2 ratio", "assay": "Bax/Bcl-2 mRNA ratio by RT-Q-PCR in LNCaP cells", "conditions": "10^−5-10^−9M, 48 hours", "procedure": "(§1) For the dose-dependence studies, the cells (50% confluent) were treated with ATA-Zn at the concentrations of 10^−3, 10^−4, 10^−5, 10^−6, 10^−7, 10^−8 and 10^−9M, for 24 hours, 48 hours and 72 hours in their respective growth medium. After 48 h of treatment, the cells were harvested and counted in the pellet. In parallel, the cell lysates were prepared in order to extract the mRNA for RT-Q-PCR and Western blotting.\n(§2) The mRNA was extracted from the cells in culture using the “SV Total RNA isolation” kit from the company Promega and according to the procedure hereinafter:\n(§3) A reverse transcription of the RNA was then carried out using the ready to go kit (kit known as “Ready To Go, You Prime First Strand Beads” commercially available from Amersham Biosciences, Piscataway, United States) in accordance with the supplier's instructions using 3 μg of RNA.\n(§4) The “LightCycler-Fast Start DNA Master SYBR Green I” test commercially available from Roche Diagnostics, Meylan, France, was used to quantify the gene expression by means of a real-time polymerase chain reaction (PCR). […]\nLNCaP cells were incubated with various concentrations of ATA-Zn (10^−5-10^−9M) for 48 hours. The change in the synthesis of Bax mRNA and Bcl-2 mRNA was measured by RT-Q-PCR according to the procedure described previously in the section entitled “Materials and methods”."}, "Bax and Bcl-2": {"test_system": "Bax and Bcl-2", "assay": "Bax/Bcl-2 mRNA by RT-Q-PCR in PrECs", "conditions": "Bax and Bcl-2 base amount too low for PCR amplification, a conclusion", "procedure": "as §1, §2, §3\n(§5) The “LightCycler-Fast Start DNA Master SYBR Green I” test commercially available from Roche Diagnostics, Meylan, France, was used to quantify the gene expression by means of a real-time polymerase chain reaction (PCR). The PCR (program: 95° C., 30 seconds; 40 cycles: 95° C., 5 seconds; 60° C., 35 seconds) was carried out using a “Mastercycler ep realplex” apparatus sold by the company Eppendorf, Hamburg, Germany.\n(§6) The expression of the target gene was standardized relative to the GAPDH housekeeping gene. […]"}, "[1]": {"test_system": "LNCaP prostate cancer cell line", "assay": "Cell count by Trypan blue exclusion, LNCaP cancer cells", "procedure": "The LNCaP prostate cancer cell line, deposited in the ATCC under No. CRL-1740, was used.\nThe cell culture medium was RPMI 1640 complete growth medium (ATCC No. 30-2001), containing 2 mM L-glutamine, 10 mM HEPES and 1.0 mM sodium pyruvate, to which the following were added: • 1) sodium carbonate and glucose in amounts sufficient to obtain a sodium carbonate concentration of 20 mM and a glucose concentration of 25 mM, • 2) […] by volume of a mixture of antibiotics (10 μg/ml of gentamycin, 100 IU of penicillin, 100 μg/ml of streptomycin), and • 3) 10% by volume of fetal calf serum.\nas §1\n(§7) In order to evaluate the number of cells, the cell pellets were mixed with 1 ml of their respective medium and the cell viability and the number of cells were evaluated by means of a Trypan blue exclusion test.\nThe viable cells and the non-viable cells were counted after Trypan blue exclusion. […] The mortality evolved in the opposite direction, with a maximum increase of about 50%. The concentration of 10^−3M was toxic. The results obtained are reported on the graphs of FIGS. 1a and 1b, which give the percentage of cancer cells relative to the control (cell culture without ATA-Zn) as a function of the concentration of ATA-Zn. FIG. 1a relates to the viable cells and FIG. 1b relates to the non-viable cells."}, "SOD-1 protein": {"test_system": "SOD-1 protein", "assay": "SOD-1 protein by Western blotting in LNCaP cells", "conditions": "48 hours, standardized relative to actin", "procedure": "(§8) The cells were lysed in the buffer for the radioimmunoprecipitation test, having the composition hereinafter:\n(§9) The proteins were then separated by SDS-PAGE and were transferred onto a Hybond-P PVDF membrane (Amersham Biosciences, Pantin, France). The membranes were incubated for 1 hour at ambient temperature with a blocking solution consisting of skimmed milk powder at 5% in TBS-T buffer (50 mM Tris-HCl, pH 8.0, 150 mM NaCl, Tween-20 at 0.1%).\n(§10) The membranes were then incubated with rabbit primary antibodies directed against cyclin-D1 (No. 29785); the markers Bax (No. 1063.1) and BCL-2 (No. 1017-1); Nrf-2 (No. 2178-1) and SOD-1 (No. 2018-1) all sold by the company Epitomies under the references indicated above, and the A2103 anti-actin, N-terminal, antibodies sold by the company Sigma-Aldrich (Saint Quentin Fallavier, France) in the blocking solution overnight at 4° C. The said antibodies were diluted in accordance with the manufacturer's instructions to 1/1000. The anti-actin antibodies served to standardize the membranes. […]\n(§11) LNCaP cells were incubated with a range of ATA-Zn concentrations for 48 hours. The amount of Nrf-2 and SOD-1 proteins were then measured by Western blotting. The quantification was carried out with the “Quantity One” software and the results were standardized relative to the actin data. […]"}, "cyclin-D1 mRNA [2]": {"test_system": "cyclin-D1 mRNA", "assay": "Cyclin-D1 mRNA by RT-Q-PCR in normal cells", "conditions": "normal cells (PrECs), 24 hours", "procedure": "as §1, §2, §3, §5, §6"}, "[3]": {"test_system": "Normal prostate epithelial cells (PrECs)", "assay": "Cell count by Trypan blue exclusion, normal PrECs", "procedure": "Normal prostate epithelial cells (PrECs) and the PrEC growth medium sold by the company Cambrex Bioscience (Walkersville, Md.) were used by way of comparison.\nas §1, §7"}, "cyclin-D1 mRNA [4]": {"test_system": "cyclin-D1 mRNA", "assay": "Cyclin-D1 mRNA by RT-Q-PCR in LNCaP cells", "conditions": "10^−5-10^−9M, after 24 hours of exposure", "procedure": "as §1, §2, §3, §4\nThe amount of cyclin-D1 mRNA was measured by RT-Q-PCR according to the procedure previously described in the section entitled “Materials and methods”. […]"}, "Nrf-2 protein": {"test_system": "Nrf-2 protein", "assay": "Nrf-2 protein by Western blotting in LNCaP cells", "conditions": "48 hours, standardized relative to actin", "procedure": "as §8, §9, §10, §11"}},
  "note": "“Also recorded” adds a separate entry of the source.",
  "data": [
    {"substance": "zinc N-acetyltaurinate [ATA-Zn]", "values": [
      {"measurement": "Bax/Bcl-2 ratio (mRNA)", "setting": "Bax/Bcl-2 ratio", "value": "greatly increased"},
      {"measurement": "apoptosis in normal PrECs", "setting": "Bax and Bcl-2", "value": "not influenced"},
      {"measurement": "antiproliferative effect / number of cells", "setting": "[1]; LNCaP cancer cells of the prostate, 48 hours, each dose", "value": "antiproliferative effect; also recorded: reduced the number of cells at each dose"},
      {"measurement": "toxicity at the concentration of 10^−3M", "setting": "[1]; LNCaP, 10^−3M", "value": "toxic"},
      {"measurement": "maximum reduction of the number of cells", "setting": "[1]; LNCaP, 48 hours of incubation, highest concentration (10^−4), relative to control", "value": 25, "unit": "%"},
      {"measurement": "maximum increase of mortality (non-viable cells)", "setting": "[1]; LNCaP, 48 hours of incubation, relative to control", "value": "about 50%"},
      {"measurement": "concentrations at which nontoxic", "setting": "[1]; general statement on the in vitro cell tests", "value": "below 10^−3 M"},
      {"measurement": "level of the SOD-1 protein", "setting": "SOD-1 protein", "value": "decreases"},
      {"measurement": "synthesis of cyclin-D1 mRNA", "setting": "cyclin-D1 mRNA [2]", "value": "no effect"},
      {"measurement": "toxicity at the dose of 10^−3M", "setting": "[3]; PrECs, 10^−3M", "value": "toxic"},
      {"measurement": "state of cells after 72 hours with 10^−3M", "setting": "[3]; PrECs, 10^−3M, 72 hours of incubation", "value": "completely dead"},
      {"measurement": "effect on the number of cells", "setting": "[3]; normal PrECs, up to 72 hours of incubation, doses below 10^−3M", "value": "no effect"},
      {"measurement": "synthesis of cyclin-D1 mRNA", "setting": "cyclin-D1 mRNA [4]", "value": "reduces"},
      {"measurement": "Nrf-2 protein", "setting": "Nrf-2 protein", "value": "repressed"}
    ]}
  ]
}
